From patent publication US5679671A, “Amino acid derivative” (Eisai Co., Ltd., priority 1993, dated 1997)

Tests used:
Type in all cases: biochemical
Parameters in all cases: membrane fraction prepared from rat renal cortex; from tissue; host or cells: rat renal cortex, membrane fraction (method of Booth and Kenny)
Conditions in all cases: rat renal cortex membrane fraction
NEP [1] = molecular target: T1, NEP (Rattus norvegicus, UniProt P07861); assay: NEP inhibition activity (Experiment F-1)
T1 sequence (P07861 1-750): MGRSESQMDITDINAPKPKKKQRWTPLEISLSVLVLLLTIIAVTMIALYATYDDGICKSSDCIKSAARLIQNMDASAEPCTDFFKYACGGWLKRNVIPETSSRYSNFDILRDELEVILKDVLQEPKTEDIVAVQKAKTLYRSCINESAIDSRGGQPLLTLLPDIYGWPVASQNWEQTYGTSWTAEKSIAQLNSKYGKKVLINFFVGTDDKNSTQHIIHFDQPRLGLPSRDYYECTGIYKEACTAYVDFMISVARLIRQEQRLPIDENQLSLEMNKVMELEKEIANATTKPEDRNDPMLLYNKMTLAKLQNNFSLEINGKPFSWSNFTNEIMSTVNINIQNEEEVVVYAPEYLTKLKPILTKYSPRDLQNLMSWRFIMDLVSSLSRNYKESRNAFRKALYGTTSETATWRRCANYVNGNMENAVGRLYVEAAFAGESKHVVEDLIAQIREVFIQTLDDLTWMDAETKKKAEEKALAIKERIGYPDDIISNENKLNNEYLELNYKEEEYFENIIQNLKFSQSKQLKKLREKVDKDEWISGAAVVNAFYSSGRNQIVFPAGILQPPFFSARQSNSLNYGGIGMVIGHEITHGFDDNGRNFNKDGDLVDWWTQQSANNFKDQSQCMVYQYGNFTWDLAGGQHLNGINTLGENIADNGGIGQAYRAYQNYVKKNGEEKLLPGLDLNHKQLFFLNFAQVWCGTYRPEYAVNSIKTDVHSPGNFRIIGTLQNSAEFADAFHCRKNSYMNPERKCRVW
Experimental: (§1) As a source of the enzyme NEP, a membrane fraction prepared from rat renal cortex in accordance with the method of Booth and Kenny (A Rapid Method for the Purification of Microvilli from Rabbit Kidney., Andrew G. Booth and A. John Kenny, Biochem. j., 1974, 142, 575-581.) was employed. The NEP activity was determined in accordance with the method of Orlowsky and Wilk (Purification and Specificity of a Membrane-Bound Metalloendpeptidase from Bovine Pituitaries., Marian Orlowsky and Shrwin Wilk, Biochemistry, 1981, 20, 4942-4950.). Now the procedure will be briefly described.
(§2) As a substrate, benzoyl-glycyl-arginyl-arginyl-2-naphthylamide (benzoyl-Gly-Arg-Arg-2-naphthylamide (Nova Biochem, Switzerland)) was used. In the presence of an NEP enzyme preparation and excessive leucine aminopeptidase (sigma chemical Co., U.S.A.), the liberated naphthylamine was made to undergo color development with first garnet (Sigma chemical Co., U.S.A.), followed by the measurement of the absorbance at a wavelength of 540 nm.
(§3) With respect to the NEP inhibition activity and the ACE inhibition activity, the inhibitor was added to the assay systems of both enzyme activities as described above in such a manner as to give the final concentrations of 1, 3, 10, 30, 100, 300 and 1000 inhibition curves were prepared, and then the concentration at which 50% inhibition was achieved was taken as IC50.

NEP [2] = molecular target: T1, NEP; assay: NEP inhibition activity (Experiment E-1)
Experimental: as §1, with “142,575-581.)” for “142, 575-581.)”
as §2, with “(benzoyl-Gly-Arg-Arg-2 naphthylamide” for “(benzoyl-Gly-Arg-Arg-2-naphthylamide”
as §3, with “To determine” for “With respect to”, “[…]” for “300”, “1000 nM and” for “1000”, “prepared. Then” for “prepared, and then”

NEP [3] = molecular target: T1, NEP; assay: NEP inhibition activity using rat renal cortex (Experiment A-1)
Experimental: The NEP activity was determined by using a membrane fraction prepared from rat renal cortex in accordance with the method of Booth and Kenny (A Rapid Metod for the Purificaton of Microvilli from Rabbit Kidney., Andrew G. Booth and A. John Kenny, Biochem j., 1974, 142, […].).
The NEP activity was determined by the following manner in accordance with the method of Orlowsky and Wilk (Purification and Specificity of a Membrane-Bound Metalloendopeptidase from Bovine Pituitaries., Marian Orlowsky and Shrwin Wilk, Biochemistry, 1981, 20, 4942-4950.).
as §2
as §3, with “NEP” for “NEP inhibition activity and the ACE”, “experimental system” for “assay systems of both enzyme activities”, “1000 nM, an” for “1000”, “curve was” for “curves were”

Structure (SMILES): O=C(N[C@H]1Cc2ccccc2[C@H]2CCC[C@@H](C(=O)O)N2C1=O)[C@@H](S)Cc1ccccc1 [Comp. cpd. E-1, [4S-[4α,7α(R*),12bβ]]-7-[(1-oxo-2-(S)-thio-3-phenyl-propyl)amino]-1,2,3,4,6,7,8,12b-octahydro-6-oxopyrido-[2,1-a][2]benzazepine-4-carboxylic acid, reference compound]
- IC50 (NEP [1]): 13.5 nM
- IC50 (NEP [2]): 27 nM

Structure (SMILES): CC[C@H](C)[C@H](S)C(=O)NC1CCc2ccccc2N(CC(=O)O)C1=O (stereo partly drawn) [Example A-9, 1-Carboxymethyl-3-[(2S,3S)-2-mercapto-3-methylvarelylamino]-1H-[1]benzazepin-2-one]
- IC50 (NEP [3]): 13 nM

Structure (SMILES): CC[C@H](C)[C@H](S)C(=O)N[C@H]1CCc2ccccc2N(CC(=O)O)C1=O [Example A-11, (S)-3-[(2S,3S)-2-Mercapto-3-methylvarelylamino]-1-carboxymethyl-2,3,4,5-tetrahydro-1H-[1]benzazepin-2-one]
- IC50 (NEP [3]): 6.2 nM

Structure (SMILES): CC[C@H](C)[C@H](S)C(=O)N[C@H]1CCC[C@H]2SC[C@@H](C(=O)O)N2C1=O [Example C-8, [3R-[3α,6α,(S*),9aβ]]-6-[[(2S,3S)-3-methyl-1-oxo-2-thiopentyl]amino]-octahydro-5-oxothiazol[3,2-a]-azepine-3-carboxylic acid]
- IC50 (NEP [1]): 9.2 nM

Structure (SMILES): CC[C@H](C)[C@H](S)C(=O)N[C@H]1Cc2ccc(-c3ccccc3)cc2[C@H]2CCC[C@@H](C(=O)O)N2C1=O [Example C-14, [4S-[4α,7α(R*),12bβ]]-7-[[(2S,3S)-3-Methyl-1-oxo-2-thiopentyl]amino]-6-oxo-11-phenyl-1,2,3,4,6,7,8,12b-octahydropyrido[2,1-a][2]benzazepine-4-carboxylic acid]
- IC50 (NEP [2]): 14 nM

Structure (SMILES): CC(C)[C@H](S)C(=O)N[C@H]1Cc2ccc(-c3ccccc3)cc2[C@H]2CCC[C@@H](C(=O)O)N2C1=O [Example E-10, [4S-[4α,7α(R*),12bβ]]-7-[(S)-2-Mercapto-3-methylbutyrylamino]-6-oxo-11-phenyl-1,2,3,4,6,7,8,12b-octahydropyrido[2,1-a][2]benzazepine-4-carboxylic acid]
- IC50 (NEP [2]): 8.2 nM

Structure (SMILES): O=C(N[C@H]1CCC[C@H]2SC[C@@H](C(=O)O)N2C1=O)[C@@H](S)Cc1ccccc1 [Example F-17, [3R-[3α,6α(S*),9aβ]]-6-[[(S)-1-Oxo-2-thio-3-phenylpropyl]amino]-octahydro-5-oxothiazol[3,2-a]-azepine-3-carboxylic acid]
- IC50 (NEP [1]): 11.1 nM
